Structures can show the parent of a compound that is named as a salt.
Target: T1, human 5-hydroxytryptamine receptor 1A (5-HT1A) (Homo sapiens, UniProt P08908)
T1 construct: expressed in transfected cells; host or cells: HTR1A&Ga15-CHO
T1 sequence (P08908 1-422): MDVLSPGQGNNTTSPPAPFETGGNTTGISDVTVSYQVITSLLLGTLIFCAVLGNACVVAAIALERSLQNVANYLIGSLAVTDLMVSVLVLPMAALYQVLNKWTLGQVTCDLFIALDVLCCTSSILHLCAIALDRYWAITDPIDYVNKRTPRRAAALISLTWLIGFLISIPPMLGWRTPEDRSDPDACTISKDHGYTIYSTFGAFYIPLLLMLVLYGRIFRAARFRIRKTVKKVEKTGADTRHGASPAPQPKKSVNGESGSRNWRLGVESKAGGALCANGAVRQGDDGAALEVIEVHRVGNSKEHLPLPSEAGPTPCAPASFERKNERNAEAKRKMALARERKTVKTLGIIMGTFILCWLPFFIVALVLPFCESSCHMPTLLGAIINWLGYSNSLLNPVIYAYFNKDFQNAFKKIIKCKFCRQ
Test: Human 5-HT1A functional FLIPR assay (agonist mode)
Format: cell-based
Settings: footnote: Curve fitting with activation (%) @ 10 mM with RFU
Description: The potential excitatory effects of compounds targeting on 5-hydroxytryptamine receptor 1A under agonist mode was assessed.
HTR1A&Ga15-CHO cells were cultured in DMEM/F12 medium containing 10% dialyzed FBS, 1× penicillin-streptomycin and 600 μg/mL Hygromycin B. The cells were passaged about three times a week, maintained between […] confluence.
• 1. The cell culture medium (DMEM/F12 medium containing 10% dialyzed FBS, 1× penicillin-streptomycin and 600 μg/mL Hygromycin B), TrypLE™ Express and DPBS was warmed to R.T. in advance. • 2. The cell culture medium was removed from the flask. The cells were washed with DPBS. • 3. 1 mL TrypLE™ Express was added to the flask, mixed well by gentle shaking and then cells were incubated at 37° C. for a few minutes. • 4. The cells morphological change was checked under microscope, and the digestion stopped by adding 2 mL cell culture medium to the flask when most of cells turned to round. • 5. The cell suspension was transferred into a 15 mL centrifuge tube, and then centrifuged at 1,200 rpm for 5 minutes. • 6. The supernatant was removed. The cell pellet was resuspended with 2 mL cell culture medium. • 7. The cell density was counted using cell counter. Only cells with >85% viability were used for the assay. • 8. The cells were diluted to 4×10^5/mL with cell culture medium. • 9. 30 μL/well cell suspensions were added into a 384-well cell plate (The cell density was 12,000 cells/well). • 10. The cell plate was incubated overnight at 37° C., 5% (v/v) CO2. 3.3 Cell handling • 1. On the day of experiments, culture medium was removed from the cell plate. • 2. 10 μL of assay buffer (20 mM HEPES, in 1× HBSS, pH 7.4) was added to each well of the cell plate. • 3. 2× dye solution was prepared following the manufacture's instruction of the FLIPR® Calcium 6 assay kit: • i. The dye was diluted with assay buffer. • ii. Probenecid was added to the final concentration of 5 mM. • iii. Vigorously vortex for 1-2 minutes, and pH was adjusted to 7.4. • 4. 10 μL of 2× dye solution was added to each well of the cell plate. • 5. The cell plate was placed on plate shaker, followed by shaking at 600 rpm for 2 minutes. • 6. The plate at 37° C. was incubated for 2 hours followed by an additional 15-minute incubation at 25° C.
• 1. Serotonin was prepared to the concentration of 10 mM with DMSO, 3-folds serial dilutions were performed with DMSO. • 2. The test compounds were prepared to the concentration of 10 mM with DMSO, 3-folds serial dilutions were performed with DMSO. • 3. The compounds were added to a 384-well compound source plate. • 4. 90 nL/well of serial diluted compounds were transferred from source plate to a 384-well compound plate by using an Echo. • 5. 30 μL/well of assay buffer was added to the compound plate. • 6. The plate-on-plate shaker was mixed for 2 minutes.
• 1. After the cells had incubated with dye solution, the cell plate, compound plate containing 3×compounds and FLIPR tips were placed into FLIPR. • 2. 10 μL of 3×compounds were transferred from the compound plate to the cell plate by FLIPR. • 3. The plate was read for 160 sec with 1 sec interval to obtain the data of agonist mode.
• 1. The normalized fluorescence reading (RFU) was calculated as shown below, wherein Fmax and Fmin stand for maximum and minimum of calcium signal during defined time window:
2. EC50 was calculated by fitting RFU against log of compound concentrations with Hill equation using XLfit.

Structure (SMILES) | RFU@10 μM [RFU]
CN(C)CCc1c[nH]c2cccc(OC(=O)CCCC(=O)Oc3cccc4[nH]cc(CCN(C)C)c34)c12 [Compound I-24, Bis(3-(2-(dimethylamino)ethyl)-1H-indol-4-yl) glutarate] | 169
CN(C)CCc1c[nH]c2cccc(O)c12 [Psilocin, 4-hydroxy-N,N-dimethyltryptamine, reference compound] | 140
CN(C)CCc1c[nH]c2cccc(OP(=O)(O)O)c12 [Psilocybin] | 143
CC(C)N(CCc1c[nH]c2cccc(OC(=O)CCCC(=O)Oc3cccc4[nH]cc(CCN(C(C)C)C(C)C)c34)c12)C(C)C [Compound I-37, Bis(3-(2-(diisopropylamino)ethyl)-1H-indol-4-yl) glutarate dihydrochloride] | 62
CC(C)N(CCc1c[nH]c2cccc(O)c12)C(C)C [Compound 7] | 74

From patent US20260327250A1, “3-ETHYLAMINO-INDOLE DIMERS AS SEROTONERGIC AGENTS USEFUL FOR THE TREATMENT OF DISORDERS RELATED THERETO” (MINDSET PHARMA INC., priority 2022, published 2026)
